Values joined by “and” are separate entries in the source; they are usually repeats but may differ in a detail not shown here. Equal entries are not always repeated. *1 amine or outer side, *2 acyl side, *3 side chain or, on linkers, in order; H or OH if unused. Where a SMILES comes first, the peptide text is derived from it. [ ]: non-standard residue; d: D form. X1 = CC1=CC(C)=[N+]2C1=C(c1cccc(-c3[nH]c4ccccc4c3C[C@H](N[*:1])C(=O)[*:2])c1)c1ccc(-c3ccc(C)s3)n1[B-]2(F)F; Nle = CCCC[C@H](N)C(=O)O
Experiments:
[1] = tested on: Protease XIV (from Streptomyces Griseus); assay: Protease stability assay (protease cocktail, HPLC-MS monitoring); assay type: in vitro ADME; conditions: Protease XIV 5 μg mL-1 in PBS-citrate buffer pH 7.1, 37 °C, peptide 500 µM (from 5 mM DMSO stock), HPLC-MS with detection at 280 nm
Procedure: Given that proteases are abundant enzymes at tumour sites, we also investigated the potential degradation of the cyclopeptides 2 (unlabelled) and 8 [Trp(redBODIPY)-labelled] when subjected to strong proteolytic environments. We incubated both peptides with a commercially available protease cocktail at 37 °C and recorded their chemical stability by HPLC-MS over time. […] We also observed that the incorporation of the amino acid Trp(redBODIPY) into the structure of the cyclopeptide 2 slightly augmented its resistance to proteases, likely due to the inherent properties of unnatural amino acids.
5. Experimental Protocols for Biological Assays […]
(§1) Protease stability assays
(§2) The chemical stability of the peptides was assessed in the presence of Protease XIV (from Streptomyces Griseus) in PBS-citrate buffer (pH 7.1) at 37 °C. First, a stock of 5 μg mL-1 of the protease cocktail in the buffer was prepared. Initially, a concentrated 1 mg mL−1 solution was obtained by weighing 1.1 mg of the protease and dissolving it in 1.1 mL of buffer, and afterwards diluting it down to the desired 5 μg mL-1 stock. Then, 5 µL of the peptides (5 mM in DMSO) were diluted with 45 µL of the protease cocktail to obtain a final peptide concentration of 500 µM. Peptides were vortexed, covered in aluminium foil and shaken at 37°C for 2 h or 24 h. Aliquots (25 µL) were taken, proteins were precipitated by microcentrifugation at 4°C, and supernatants were collected for HPLC-MS with detection at 280 nm. […]

HeLa cells = assay: Cell viability assay (TACS MTT Cell Proliferation assay); assay type: cell-based; conditions: different concentrations of peptide, 2 h at 37 °C, vs untreated control, means ± s.d. (n = 4), p > 0.05
Procedure: 5. Experimental Protocols for Biological Assays
Spectroscopic characterisation
Spectral properties were measured in a BioTek Cytation 3 spectrophotometer. Absorbance and emission spectra were determined in the range of 400–700 nm (every 1 nm) at the indicated concentrations. Environmental sensitivity was measured by comparing the emission in PBS or in presence of phosphatidylcholine: cholesterol (7:1) liposomes (3.75 mg mL-1 PC).
Fluorescence emission was determined on a 384-well plate using a BioTek Cytation 3 spectrophotometer as indicated (excitation at 520 nm, 530-700 nm emission range, every 1 […]
as §1
as §2, with “h.” for “h. Aliquots (25 µL) were taken, proteins were precipitated by microcentrifugation at 4°C, and supernatants were collected for HPLC-MS with detection at 280 nm.”
Cell viability of HeLa cells was determined using the TACS® MTT Cell Proliferation assay (Trevigen). […]

CCCC[C@@H]1NC(=O)[C@H](Cc2c[nH]c3ccccc23)NC(=O)[C@H](CC(C)C)NC(=O)[C@H](Cc2ccccc2)NC(=O)[C@@H](CCCCN)NC(=O)[C@H](CCC(N)=O)NC(=O)[C@H](Cc2ccc(O)cc2)NC(=O)[C@H](C)NC(=O)[C@H](C)NC(=O)[C@H](CCC(=O)O)NC1=O [compound 2, reference compound] (cyclo(AAYQ[dK]FLW[Nle]E))
chemical stability 2 h [1]: 65%
chemical stability 24 h [1]: 50%

CCCC[C@@H]1NC(=O)[C@H](Cc2c(-c3cccc(C4=C5C(C)=CC(C)=[N+]5[B-](F)(F)n5c4ccc5-c4ccc(C)s4)c3)[nH]c3ccccc23)NC(=O)[C@H](CC(C)C)NC(=O)[C@H](Cc2ccccc2)NC(=O)[C@@H](CCCCN)NC(=O)[C@H](CCC(N)=O)NC(=O)[C@H](Cc2ccc(O)cc2)NC(=O)[C@H](C)NC(=O)[C@H](C)NC(=O)[C@H](CCC(=O)O)NC1=O [compound 8] (cyclo(AAYQ[dK]FL[X1][Nle]E))
Viability of HeLa cells (HeLa cells): Non-significant differences
fluorescence increase in hydrophobic medium (fluorogenic): < 70 fold and 70 fold
chemical stability 2 h [1]: > 95%
chemical stability 24 h [1]: 82%

Source: article PMC8148049, “Fluorogenic Trp(redBODIPY) cyclopeptide targeting keratin 1 for imaging of aggressive carcinomas” (Chemical Science, 2019)
